Laboratory results reported in patent US20220193006A1, “COMPOSITIONS FOR EFFECTIVE MANAGEMENT OF FIBROBLAST-LIKE SYNOVIOCYTES MEDIATED RHEUMATOID ARTHRITIS” (priority 2020, published 2022).

Legend:
[1] = test system: Fibroblast-like synoviocytes (FLS); assay: WST-1 proliferation assay; type: cell-based, rat; conditions: 20 μg/mL, 72 hours; FIG. 5
Protocol: FLS were isolated from synovial tissues by enzymatic digestion. In short, the tissues were separated into 1-mm^3 blocks with microsurgery scissors. After which the tissues were incubated with 0.1% collagenase type II enzyme in DMEM supplemented with 10% FBS for enzymatic digestion at 37° C. for 45 min in an orbital shaker incubator (200 rpm).
After the incubation time, the tubes were vortexed vigorously for 1-2 min to release the cells and filtered using a 100 μm mesh strainer. The filtrate was centrifuged for 5 min at 1200 rpm, the cells were resuspended in DMEM supplemented with 10% FBS and 100 μg/ml streptomycin and 100 U/ml penicillin and cultured in a humidified incubator at 37° C. under 5% CO2.
WST-1 assay was used to measure the effect of different samples on FLS proliferation. FLS were seeded in 96-well plates at a density of 5×10^3 cells/well and incubated overnight at 37° C. under 5% CO2. After the treatment period, 100 μl WST-1 reagent (5015944001, Sigma, USA) diluted 1:10 in serum-free DMEM culture media was added to each well, and incubated at 37° C. under 5% CO2 for 2 h. The absorbance was measured at 450 nm with a reference wavelength of 610 nm.

[2] = test system: Bax/Bcl-2; assay: Apoptosis analysis, Bax/Bcl-2 RT-PCR expression in FLS; type: cell-based, rat; conditions: 24 h treatment; compared to the control; FIG. 19
Protocol: FLS apoptosis was assessed with RT-PCR expression study. In short, FLS cells (8×10^4 cells/well) were seeded in 24-well plates and incubated overnight at 37° C. under 5% CO2. After synchronization in serum-free medium for 24 h, cells were treated with or without the presence of samples in DMEM 10% FBS for 24 h. After the treatment period, the cells were collected, total cellular RNA was isolated and processed for RT-PCR analysis (Table 3) as mentioned before.

[3] = test system: Cathepsin; assay: Inflammatory markers, RT-PCR expression study in TNF-α induced FLS; type: cell-based; conditions: sample 10 μg/mL; FLS induced with 10 ng/ml rat TNF-α, 6 hrs; Control = 1, Induced 3.86
Protocol: (§1) FLS cells (8×10^4 cells/well) were seeded in 24-well plates and incubated overnight at 37° C. under 5% CO2. […] RT-PCR expression study: After 6 hrs of incubation, total cellular RNA from untreated and treated cells were isolated using Trizol Reagent® (Ambion, Life Technologies), according to the manufacturer's instructions, followed by RNase-free DNase I treatment (ThermoFisher Scientific) to remove any genomic DNA. Messenger RNA quality and concentration were analyzed spectrophotometrically (NanoDrop Lite, ThermoFisher Scientific). One microgram of total RNA was reverse transcribed into cDNA using Revert-aid First Strand cDNA synthesis kit (ThermoFisher Scientific), according to the manufacturer's instructions, and stored at −80° C. until use. Then 20 μl of the reaction mixture was subjected to PCR using SYBR green qPCR master mix for amplification of cDNAs using specifically designed primers procured from Eurofins India, as an internal control, the house keeping gene § actin was co-amplified with each reaction (Table 2). PCR was carried out in Light cycler 96 (Roche Life Science) and PCR conditions for genes were initial denaturation at 95° C. for 10 min followed by 35 cycles consisting of denaturation at 95° C. for 30 seconds, annealing of primers at 60° C. for 30 seconds, extension at 72° C. for 30 seconds and final cooling at 72° C. for 30 seconds (Table 1).

[4] = test system: MMP-3; assay: as above; type: cell-based; conditions: sample 10 μg/mL; FLS induced with 10 ng/ml rat TNF-α, 6 hrs; Control = 1, Induced 5.14
Protocol: as §1

[5] = test system: TNF-α; assay: as above; type: cell-based; conditions: sample 10 μg/mL; FLS induced with 10 ng/ml rat TNF-α, 6 hrs; Control = 1, Induced 7.93
Protocol: as §1

[6] = test system: CCL-5; assay: as above; type: cell-based; conditions: sample 10 μg/mL; FLS induced with 10 ng/ml rat TNF-α, 6 hrs; Control = 1, Induced 7.16
Protocol: as §1

[7] = test system: IFN-γ; assay: as above; type: cell-based; conditions: sample 10 μg/mL; FLS induced with 10 ng/ml rat TNF-α, 6 hrs; Control = 1, Induced 5.7
Protocol: as §1

[8] = test system: collagen-induced arthritis (CIA); assay: Collagen-induced arthritis study, arthritic score; type: in vivo, rat; conditions: positive control, 10 mg/kg; RA control is 3.5; scale 0-4; FIG. 32
Excerpt: The […] (Table 4) collagen-induced arthritis (CIA) is a widely studied autoimmune model of rheumatoid arthritis. In this model, autoimmune arthritis is induced by immunization with type II collagen (CII) emulsified in complete Freund's adjuvant. These animals develop an autoimmune-mediated polyarthritis that shares several clinical, histological, and immunological features with the human autoimmune disease rheumatoid arthritis. The immune response to CII is characterized by both the stimulation of collagen-specific T cells and the production of high titers of antibody specific for both the immunogen (heterologous CII) and the autoantigen (mouse or rat CII).
Arthritis induced by administering type-2 collagen (chicken sternal cartilage, Sigma catalog no: C9301) which will be emulsified with incomplete Freund's adjuvant (FIA) at 1:1 ratio. On Day 0, Rats were intradermally injected with 200 μL (200 μg/animal) of collagen-FIA emulsion at the base of the tail (First Immunization). For booster injection the emulsion was prepared same as above and injected with 100 μL (100 μg/animal) of collagen-FIA emulsion given on day 7. Test sample administered from day 0 to day 20. […]

[9] = test system: Th17 and Treg cells in spleen; assay: Treg and Th17 analysis in spleen (flow cytometry); type: in vivo, rat; conditions: spleen of CIA rats; celecoxib control; RA control at 3.5; FIG. 35
Protocol: Spleen was obtained from collagen induced arthritis rats under sterile conditions for the lymphocyte isolation. The spleen was washed twice with PBS containing 100 μg/ml streptomycin and 100 U/ml penicillin and cut into small pieces with microsurgery scissors, homogenized with plunger end of the syringe and filtered using a 100 μm mesh strainer. The filtrate was centrifuged for 5 min at 1200 rpm, washed 1-2 times with PBS, after which 1×10^6 cells/ml were suspended in RPMI media supplemented with 10% FBS. The imbalance is effected by reducing Th17 cells and increasing T-cell (Treg) (FIGS. 33-35) with the ratio of Th17/Treg preferably as 1, or more preferably between 0-1 compared to RA control at 3.5 (FIG. 35).
After the stimulation, cells were collected and 2×10^5 cells were aliquoted into different tubes for evaluating Th17 and Treg population. The antibody dilutions used for the analysis were as recommended by the respective manufacturer. To evaluate Th17 population, cells were initially stained with FITC Mouse Anti-Rat CD3 (559975, BD pharmingen) and APC Mouse Anti-Rat CD4 (550057, BD pharmingen) antibodies. […] FCM was performed on a BD FACSCelesta system (BD Biosciences, Franklin Lakes, N.J., USA) and analyzed using FlowJo software.

| Structure (SMILES) | inhibition of FLS proliferation, trend among curcuminoid analogues [1] | Bax/Bcl-2 ratio (pro-apoptosis), ranking [2] | Cathepsin (inflammatory marker expression) [3] | MMP-3 (inflammatory marker expression) [4] | TNF-α (inflammatory marker expression) [5] | CCL-5 (inflammatory marker expression) [6] | IFN-γ (inflammatory marker expression) [7] | arthritis score [8] | ratio of Th17/Treg [9] |
| --- | --- | --- | --- | --- | --- | --- | --- | --- | --- |
| COc1cc(/C=C/C(=O)CC(=O)/C=C/c2ccc(O)c(OC)c2)ccc1O [Curcumin, curcumin] | BDMC>curcumin>DMC | BDMC>DMC>curcumin | 2.70 ± 0.14 | 3.98 ± 0.48 | 3.93 ± 0.84 | 3.01 ± 0.04 | 2.7 ± 0.19 | – | – |
| Cc1ccc(-c2cc(C(F)(F)F)nn2-c2ccc(S(N)(=O)=O)cc2)cc1 [celecoxib] | – | – | – | – | – | – | – | 1 | 0.5 |
| COc1cc(/C=C/C(O)=C/C(=O)/C=C/c2ccc(O)cc2)ccc1O [DMC, demethoxycurcumin] | – | – | 3.69 ± 0.14 | 4.91 ± 0.41 | 3.57 ± 1.77 | 7.03 ± 3.03 | 4.43 ± 0.15 | – | – |
| O=C(/C=C/c1ccc(O)cc1)CC(=O)/C=C/c1ccc(O)cc1 [BDMC, bisdemethoxycurcumin] | – | – | 3.36 ± 0.37 | 6.07 ± 0.05 | 3.20 ± 2.1 | 4.07 ± 0.05 | 4.57 ± 0.11 | – | – |
